In patent US20160369258A1, “RESTRICTING NUCLEAR PROTEIN TO SPECIFIC PHASES OF THE CELL CYCLE” (UNIVERSITY OF WASHINGTON, priority 2014, published 2016):
Peptide text beside a SMILES is read from it. * marks the point of attachment. Cbz = O=C(OCc1ccccc1)*

Columns and labels:
AID-mCherry = test: HCS microscopy of AID-mCherry subcellular distribution after LMB / MG132 treatment; assay type: cell-based, human; conditions: for cytoplasmic AID-mCherry signal, response to treatment / nuclear AID-mCherry signal, increase relative to untreated cells: Ramos AID-mCherry transductants, LMB 50 ng/ml, MG132 50 μM; for nuclear AID-mCherry signal, increase relative to untreated cells: 0-4 hr
Procedure: We analyzed subcellular distribution of AID in the human B cell line, Ramos, transduced with a lentiviral construct expressing human AID fused to the mCherry fluorescent protein at the C-terminus. Ramos B cells express endogenous AID and actively diversify their Ig genes, so the pathways that regulate and respond to damage by AID are intact. Cells were analyzed by high content screening (HCS) microscopy (43), a […] approach that automatically quantifies signals per unit area (pixels) in each compartment of each cell (FIG. 1A). […] The cytoplasmic signal was unaffected by MG132 treatment, but diminished upon treatment with LMB or LMB+MG132, paralleling the increase in nuclear signal.
The human Burkitt lymphoma cell line, Ramos, was cultured in supplemented RPMI 1640 (Gibco), which contained 10% FBS, 2 mM L-glutamine, penicillin/streptomycin, 1× non-essential amino acids (Gibco), 1 mM sodium pyruvate, and 10 mM HEPES. Lentiviral transductions used 2×10^5 cells cultured in medium containing 8 μg/ml of polybrene. Following transduction, cells were cultured for 3-4 days and these recent transductants then sorted for mCherry+ to enrich for transduced cells, typically constituting 0.1-10% of the population. Cells were treated with leptomycin B (LMB; LC Laboratories) at 50 ng/ml and MG132 (Z-Leu-Leu-Leu-aldehyde; Sigma-Aldrich) at 50 μM. Viable cells were counted after trypan blue staining. Cell viability was confirmed by CellTiter-Glo® Luminescent Cell Viability Assay (Promega).
Cells were fixed in 3.7% formaldehyde at a density of 2×10^6 cells/ml and stained with whole cell stain (HCS CellMask, Invitrogen) and DAPI (0.2 μg/ml). Fixed cells were then washed, resuspended in PBS and spun down in a 96-well μclear microplate (Greiner Bio One) for imaging. Cells were imaged by Thermo Scientific ArrayScan VTI HCS reader, analyzing 3000-6000 cells in each treatment group. Cells with very low or very high mCherry signals were eliminated, gating based on the mock transduction control (low) and eliminating cells with signals more than 5 SD from the mean (high). The HCS Colocalization BioApplication protocol was used to determine nuclear and whole cell boundaries in individual cells as defined by DAPI and HCS CellMask, respectively, thereby defining the cytoplasmic region as the region between nuclear and whole cell boundaries. The average signal in the nuclear and cytoplasmic compartments was determined in individual cells by measuring the total intensity of mCherry signal divided by area within each compartment. The ratio of nuclear to cytoplasmic signal (N/C) was calculated as the ratio of the average signals of nuclear and cytoplasmic mCherry.
G1, S, and G2/M phase cells were distinguished by ranking DNA content as determined by total DAPI signal, and specific fractions of the population assigned to G1, S and G2/M phases (FIG. 16A). HCS results were expressed in terms of average signal, to ensure independence of cell size, which increases during cell cycle (FIG. 16).

Ramos B cells = test: Flow cytometry of cell cycle profile and fluorescent signal; assay type: cell-based, human; conditions: up to 4 hr of culture; Ramos AID-mCherry transductants
Procedure: To determine cell cycle distribution, cells were fixed, permeabilized with 0.5% Triton X-100, stained with DAPI (2 μg/ml) and analyzed by FACS.

Compound | cytoplasmic AID-mCherry signal, response to treatment (AID-mCherry) | nuclear AID-mCherry signal, increase relative to untreated cells (AID-mCherry) | drop of cytoplasmic AID-mCherry signal (AID-mCherry; all stages of cell cycle (G1, S, G2/M)) [%] | N/C ratio of AID-mCherry signal (AID-mCherry; representative cell, 0.5 hr LMB (untreated 0.80)) | effect of treatment on cell cycle (Ramos B cells) | effect on nuclear or cytoplasmic AID-mCherry signals (AID-mCherry; any phase of cell cycle)
CCC(=C/[C@H](C)C/C=C/C(C)=C/[C@@H](C)C(=O)[C@@H](C)[C@H](O)[C@@H](C)C/C(C)=C/C(=O)O)/C=C/[C@@H]1OC(=O)C=C[C@@H]1C [LMB, leptomycin B] | diminished | 1.5 fold | 50 | 1.34 | not perturbed significantly | –
CC(C)C[C@@H](C=O)NC(=O)[C@H](CC(C)C)NC(=O)[C@H](CC(C)C)NC(=O)OCc1ccccc1 [MG132, Z-Leu-Leu-Leu-aldehyde] (Cbz-Leu-Leu-Leu-aldehyde) | unaffected | unaffected | – | – | not perturbed significantly | little effect
